According to ChEMBL document CHEMBL2413004, “Synthesis and in vitro cytostatic activity of 1,2- and 1,3-diacylglycerophosphates of clofarabine” (Bioorg Med Chem, 2013):

Key:
Assay type in all cases: functional, cell-based
HeLa = assay: Cytostatic activity against human HeLa cells after 48 hrs by MTT assay
MCF7 = assay: Cytostatic activity against human MCF7 cells after 48 hrs by MTT assay; settings: MCF7, 48 h
HL-60 = assay: Cytostatic activity against human HL60 cells after 48 hrs by MTT assay; settings: HL-60, 48 h
A549 = assay: Cytostatic activity against human A549 cells after 48 hrs by MTT assay; settings: A549, 48 h

| Compound | IC50 (HeLa) [µM] | IC50 (MCF7) [µM] | IC50 (HL-60) [µM] | IC50 (A549) [µM] |
| --- | --- | --- | --- | --- |
| CCCCCCCCCCCCCCCC(=O)OCC(COC(=O)CCCCCCCCCCCCCCC)OP(=O)(O)OC[C@H]1O[C@@H](n2cnc3c(N)nc(Cl)nc32)[C@@H](F)[C@@H]1O | 100 | 30 | 55 | 90 |
| CCCCCCCCCCCCCC(=O)OCC(COC(=O)CCCCCCCCCCCCC)OP(=O)(O)OC[C@H]1O[C@@H](n2cnc3c(N)nc(Cl)nc32)[C@@H](F)[C@@H]1O | > 100 | 40 | > 100 | > 100 |
| CCCCCCCCCCCCCCCC(=O)OC[C@@H](COP(=O)(O)OC[C@H]1O[C@@H](n2cnc3c(N)nc(Cl)nc32)[C@@H](F)[C@@H]1O)OC(=O)CCCCCCCCCCCCCCC | > 100 | > 100 | 10 | > 100 |

Now those with a lower IC50 (HeLa), led by results:

| IC50 (HeLa) [µM] | IC50 (MCF7) [µM] | IC50 (HL-60) [µM] | IC50 (A549) [µM] | Compound |
| --- | --- | --- | --- | --- |
| 50 | 50 | 0.1 | 8 | Nc1nc(Cl)nc2c1ncn2[C@@H]1O[C@H](CO)[C@@H](O)[C@@H]1F [CLOFARABINE] |
| 50 | 40 | 0.8 | > 100 | CCCCCCCCCCCCCC(=O)OC[C@@H](COP(=O)(O)OC[C@H]1O[C@@H](n2cnc3c(N)nc(Cl)nc32)[C@@H](F)[C@@H]1O)OC(=O)CCCCCCCCCCCCC |
